Target: T1, WT/R232 STING protein (Homo sapiens, UniProt Q86WV6, H232R)
T1 construct: host or cells: HEK293T
Assay: Luciferase reporter assay in HEK293T-hSTING-Luciferase cells (R232)
Format: cell-based
Details: 20 hr stimulation, EC50 range
Procedure, shortened: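 Readout is fold-induction over baseline of secreted luciferase, measured by luminescence after 20 hr compound stimulation. Cells: clonally selected HEK293T stably carrying hSTING (R232) and a luciferase reporter under five tandem ISREs fused to an ISG54 minimal promoter.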

T1 sequence (Q86WV6 whole entry H232R): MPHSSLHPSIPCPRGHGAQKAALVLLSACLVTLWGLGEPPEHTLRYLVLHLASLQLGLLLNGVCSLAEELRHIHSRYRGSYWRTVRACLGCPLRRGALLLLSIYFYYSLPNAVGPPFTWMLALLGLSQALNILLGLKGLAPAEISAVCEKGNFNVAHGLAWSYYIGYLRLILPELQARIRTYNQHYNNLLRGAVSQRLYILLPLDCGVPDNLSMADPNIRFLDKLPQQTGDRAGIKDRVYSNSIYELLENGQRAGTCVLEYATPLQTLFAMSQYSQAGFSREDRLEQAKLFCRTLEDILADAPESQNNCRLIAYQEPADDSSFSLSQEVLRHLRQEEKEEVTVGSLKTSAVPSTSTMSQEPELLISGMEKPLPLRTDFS

Row | Compound | EC50 [µM]
1 | O=C(NCc1c(F)cc(F)cc1F)c1ccc2c(c1)N(Cc1cc(F)cc(F)c1)C(=O)C2=O [Example 141, 1-(3,5-Difluorobenzyl)-2,3-dioxo-N-(2,4,6-trifluorobenzyl)indoline-6-carboxamide] | > 10
2 | O=C(NCc1c(F)cc(F)cc1F)c1ccc2c(c1)N(Cc1c(F)cccc1Cl)C(=O)C2=O [Example 142, 1-(2-Chloro-6-fluorobenzyl)-2,3-dioxo-N-(2,4,6-trifluorobenzyl)indoline-6-carboxamide] | > 10
3 | CC1(O)C(=O)N(Cc2c(F)cccc2Cl)c2cc(C(=O)NCc3c(F)cc(F)cc3F)ccc21 (centres unmarked) [Example 143, 1-(2-Chloro-6-fluorobenzyl)-3-hydroxy-3-methyl-2-oxo-N-(2,4,6-trifluorobenzyl)indoline-6-carboxamide] | > 10
4 | CNC1(C)C(=O)N(Cc2cc(F)cc(F)c2)c2cc(C(=O)NCc3c(F)cc(F)cc3F)ccc21 (centres unmarked) [Example 145, 1-(3,5-Difluorobenzyl)-3-methyl-3-(methylamino)-2-oxo-N-(2,4,6-trifluorobenzyl)indoline-6-carboxamide] | 1 to 10
5 | CC1(O)C(=O)N(Cc2ccccc2F)c2cc(C(=O)NCc3ccco3)ccc21 (centres unmarked) [Example 149, 1-(2-fluorobenzyl)-N-(furan-2-ylmethyl)-3-hydroxy-3-methyl-2-oxoindoline-6-carboxamide] | > 10
6 | CC1(F)C(=O)N(Cc2cc(F)cc(F)c2)c2cc(C(=O)NCc3c(F)cc(F)cc3F)ccc21 (centres unmarked) [Example 150, 1-(3,5-difluorobenzyl)-3-fluoro-3-methyl-2-oxo-N-(2,4,6-trifluorobenzyl)indoline-6-carboxamide] | 1 to 10
7 | COC1(C)C(=O)N(Cc2c(F)cccc2Cl)c2cc(C(=O)NCc3c(F)cc(F)cc3F)ccc21 (centres unmarked) [Example 151] | 1 to 10
8 | CN(C)C1(C)C(=O)N(Cc2c(F)cccc2Cl)c2cc(C(=O)NCc3c(F)cc(F)cc3F)ccc21 (centres unmarked) [Example 152, 1-(2-chloro-6-fluorobenzyl)-3-(dimethylamino)-3-methyl-2-oxo-N-(2,4,6-trifluorobenzyl)indoline-6-carboxamide] | 1 to 10
9 | CC1(N)C(=O)N(Cc2ccccc2F)c2cc(C(=O)NCc3c(F)cc(F)cc3F)ccc21 (centres unmarked) [Example 154, 3-amino-1-(2-fluorobenzyl)-3-methyl-2-oxo-N-(2,4,6-trifluorobenzyl)indoline-6-carboxamide] | > 10
10 | O=C(NCc1c(F)cc(F)cc1F)c1ccc2c(c1)N(Cc1c(F)cccc1Cl)C(=O)C2(Cl)c1ccccc1 (centres unmarked) [Example 156, 3-chloro-1-(2-chloro-6-fluorobenzyl)-2-oxo-3-phenyl-N-(2,4,6-trifluorobenzyl)indoline-6-carboxamide] | > 10
11 | CCC1(O)C(=O)N(Cc2c(F)cccc2Cl)c2cc(C(=O)NCc3c(F)cc(F)cc3F)ccc21 (centres unmarked) [Example 158, 1-(2-chloro-6-fluorobenzyl)-3-ethyl-3-hydroxy-2-oxo-N-(2,4,6-trifluorobenzyl)indoline-6-carboxamide] | > 10
12 | CC(C)C1(O)C(=O)N(Cc2c(F)cccc2Cl)c2cc(C(=O)NCc3c(F)cc(F)cc3F)ccc21 (centres unmarked) [Example 159, 1-(2-chloro-6-fluorobenzyl)-3-hydroxy-3-isopropyl-2-oxo-N-(2,4,6-trifluorobenzyl)indoline-6-carboxamide] | > 10
13 | O=C(NCc1c(F)cc(F)cc1F)c1ccc2c(c1)N(Cc1c(F)cccc1Cl)C(=O)C2(O)c1ccccc1 (centres unmarked) [Example 160, 1-(2-chloro-6-fluorobenzyl)-3-hydroxy-2-oxo-3-phenyl-N-(2,4,6-trifluorobenzyl)indoline-6-carboxamide] | > 10
14 | CC1(O)C(=O)N(Cc2cc(F)cc(F)c2)c2cc(C(=O)NCc3c(F)cc(F)cc3F)ccc21 (centres unmarked) [Example 162] | > 10
15 | CC1(CC(=O)O)C(=O)N(Cc2cc(F)cc(F)c2)c2cc(C(=O)NCc3c(F)cc(F)cc3F)ccc21 (centres unmarked) [Example 169, 2-(1-(3,5-difluorobenzyl)-3-methyl-2-oxo-6-((2,4,6-trifluorobenzyl)carbamoyl)indolin-3-yl)acetic acid] | > 10
16 | CC1(C(N)=O)C(=O)N(Cc2cc(F)cc(F)c2)c2cc(C(=O)NCc3c(F)cc(F)cc3F)ccc21 (centres unmarked) [Example 170] | > 10
17 | CC1(CCN2CCOCC2)C(=O)N(Cc2cc(F)cc(F)c2)c2cc(C(=O)NCc3c(F)cc(F)cc3F)ccc21 (centres unmarked) [Example 171, 1-(3,5-difluorobenzyl)-3-methyl-3-(2-morpholinoethyl)-2-oxo-N-(2,4,6-trifluorobenzyl)indoline-6-carboxamide] | > 10
18 | CC1(CN)C(=O)N(Cc2cc(F)cc(F)c2)c2cc(C(=O)NCc3c(F)cc(F)cc3F)ccc21 (centres unmarked) [Example 172, 3-(aminomethyl)-1-(3,5-difluorobenzyl)-3-methyl-2-oxo-N-(2,4,6-trifluorobenzyl)indoline-6-carboxamide] | > 10

Row | Compound | EC50 [µM]
19 | CC1(CCN)C(=O)N(Cc2cc(F)cc(F)c2)c2cc(C(=O)NCc3c(F)cc(F)cc3F)ccc21 (centres unmarked) [Example 173, 3-(2-aminoethyl)-1-(3,5-difluorobenzyl)-3-methyl-2-oxo-N-(2,4,6-trifluorobenzyl)indoline-6-carboxamide] | > 10
20 | CC1(CCO)C(=O)N(Cc2cc(F)cc(F)c2)c2cc(C(=O)NCc3ccc(F)cc3F)ccc21 (centres unmarked) [Example 174, N-(2,4-difluorobenzyl)-1-(3,5-difluorobenzyl)-3-(2-hydroxyethyl)-3-methyl-2-oxoindoline-6-carboxamide] | > 10
21 | CC1(CO)C(=O)N(Cc2cc(F)cc(F)c2)c2cc(C(=O)NCc3ccc(F)cc3F)ccc21 (centres unmarked) [Example 176, N-(2,4-difluorobenzyl)-1-(3,5-difluorobenzyl)-3-(hydroxymethyl)-3-methyl-2-oxoindoline-6-carboxamide] | > 10
22 | CC1(CCCO)C(=O)N(Cc2c(F)cccc2Cl)c2cc(C(=O)NCc3c(F)cc(F)cc3F)ccc21 (centres unmarked) [Example 177, 1-(2-chloro-6-fluorobenzyl)-3-(3-hydroxypropyl)-3-methyl-2-oxo-N-(2,4,6-trifluorobenzyl)indoline-6-carboxamide] | > 10
23 | CC1(CC#N)C(=O)N(Cc2cc(F)cc(F)c2)c2cc(C(=O)NCc3c(F)cc(F)cc3F)ccc21 (centres unmarked) [Example 178, 3-(cyanomethyl)-1-(3,5-difluorobenzyl)-3-methyl-2-oxo-N-(2,4,6-trifluorobenzyl)indoline-6-carboxamide] | 1 to 10
24 | CC1(C)C(=O)N(Cc2cc(F)cc(F)c2)c2cc(C(=O)NCc3c(F)cc(F)cc3F)cnc21 [Example 179, 1-(3,5-Difluorobenzyl)-3,3-dimethyl-2-oxo-N-(2,4,6-trifluorobenzyl)-2,3-dihydro-1H-pyrrolo[3,2-b]pyridine-6-carboxamide] | 1 to 10
25 | CC1(C)C(=O)N(Cc2cc(F)cc(F)c2)c2nc(C(=O)NCc3c(F)cc(F)cc3F)ccc21 [Example 180, 1-(3,5-difluorobenzyl)-3,3-dimethyl-2-oxo-N-(2,4,6-trifluorobenzyl)-2,3-dihydro-1H-pyrrolo[2,3-b]pyridine-6-carboxamide] | 1 to 10
26 | CC1(C)C(=O)N(Cc2ccc(F)cc2)c2nc(C(=O)NCc3c(F)cc(F)cc3F)ccc21 [Example 181, 1-(4-fluorobenzyl)-3,3-dimethyl-2-oxo-N-(2,4,6-trifluorobenzyl)-2,3-dihydro-1H-pyrrolo[2,3-b]pyridine-6-carboxamide] | > 10
27 | Cc1cc(CN2C(=O)C(C)(C)c3ccc(C(=O)NCc4cc5ccccc5o4)nc32)ccn1 [Example 183, N-(benzofuran-2-ylmethyl)-3,3-dimethyl-1-((2-methylpyridin-4-yl)methyl)-2-oxo-2,3-dihydro-1H-pyrrolo[2,3-b]pyridine-6-carboxamide] | 1 to 10
28 | CC1(C)C(=O)N(Cc2ccncc2)c2nc(C(=O)NCc3c(F)cc(F)cc3F)ccc21 [Example 184, 3,3-dimethyl-2-oxo-1-(pyridin-4-ylmethyl)-N-(2,4,6-trifluorobenzyl)-2,3-dihydro-1H-pyrrolo[2,3-b]pyridine-6-carboxamide] | 1 to 10
29 | Cc1cc(CN2C(=O)C(C)(C)c3ccc(C(=O)NCc4c(F)cc(F)cc4F)nc32)ccn1 [Example 185, 3,3-dimethyl-1-((2-methylpyridin-4-yl)methyl)-2-oxo-N-(2,4,6-trifluorobenzyl)-2,3-dihydro-1H-pyrrolo[2,3-b]pyridine-6-carboxamide] | 1 to 10
30 | CC1(C)C(=O)N(Cc2cc(F)cc(F)c2)c2cc(C(=O)NCc3c(F)cc(F)cc3F)ncc21 [Example 186, 1-(3,5-difluorobenzyl)-3,3-dimethyl-2-oxo-N-(2,4,6-trifluorobenzyl)-2,3-dihydro-1H-pyrrolo[3,2-c]pyridine-6-carboxamide] | > 10
31 | CC1(C)C(=O)N(Cc2cc(F)cc(F)c2)c2nc(C(=O)NCc3cc4ccncc4o3)ccc21 [Example 187, 1-(3,5-difluorobenzyl)-N-(furo[2,3-c]pyridin-2-ylmethyl)-3,3-dimethyl-2-oxo-2,3-dihydro-1H-pyrrolo[2,3-b]pyridine-6-carboxamide] | > 10
32 | CC1(C)C(=O)N(Cc2cc(F)cc(F)c2)c2nc(C(=O)NCCc3c(F)cc(F)cc3F)ccc21 [Example 190, 1-(3,5-difluorobenzyl)-3,3-dimethyl-2-oxo-N-(2,4,6-trifluorophenethyl)-2,3-dihydro-1H-pyrrolo[2,3-b]pyridine-6-carboxamide] | > 10
33 | CC1(C)C(=O)N(Cc2cc(F)cc(F)c2)c2nc(C(=O)NCc3ccc(C#N)cc3)ccc21 [Example 192, N-(4-cyanobenzyl)-1-(3,5-difluorobenzyl)-3,3-dimethyl-2-oxo-2,3-dihydro-1H-pyrrolo[2,3-b]pyridine-6-carboxamide] | 1 to 10
34 | CC1(C)C(=O)N(Cc2cc(F)cc(F)c2)c2cc(C(=O)NCc3cc4ccccc4o3)cnc21 [Example 193, N-(benzofuran-2-ylmethyl)-1-(3,5-difluorobenzyl)-3,3-dimethyl-2-oxo-2,3-dihydro-1H-pyrrolo[3,2-b]pyridine-6-carboxamide] | > 10
35 | Cc1cccc(F)c1CN1C(=O)C(C)(C)c2ccc(C(=O)NCc3ccc(F)cc3)nc21 [Example 194, 1-(2-fluoro-6-methylbenzyl)-N-(4-fluorobenzyl)-3,3-dimethyl-2-oxo-2,3-dihydro-1H-pyrrolo[2,3-b]pyridine-6-carboxamide] | 1 to 10
